Test system: CX-1 Human Colon Carcinoma
Assay: Clonogenic dye screening assay, CX-1 cells (IC50)
Type: cell-based
Set-up: CX: unit not given here
Conditions: for CX (IC50 in the CX-1 cell line): 3 hrs treatment, colonies after 7-10 days, unit from method b117-118; for CV/CX (selectivity, kill ratio): ratio of IC50 in normal CV-1 line to IC50 in carcinoma CX-1 line; for CX: CX-1 cells; for CV/C: selectivity ratio, value of 1 where dye inactive
From the text: CX-1 is a cancerous human colon adenocarcinoma cell line. CV-1 is a non-cancerous control, which is a kidney epithelial cell line from an African green monkey. IC50 is the dye concentration at which 50% of the cells are killed. Selectivity or kill ratio is defined as the ratio of […] at IC50 for both CX-1 and CV-1. A ratio with a high number indicates a high selectivity.
The dyes were screened in two cell lines. CX-1 is a human colon adenocarcinoma cell line. CV-1 is a kidney epithelial cell line from an African green monkey. CV-1 was used as a reference because no normal human epithelial cell line is available for clonogenic assay.
In the initial screen, dyes were examined at six different concentrations to generate a dose response curve. An IC50 value, the concentration at which 50% of the cells are killed, was then calculated. Initially, a dye concentration of 1.0 μg/mL was the highest examined for the CX-1 cell line and 0.005 μg/mL was the lower limit. The corresponding limits on the CV-1 cell line were […].
The screening procedure used a response curve that was determined from eight dye concentrations. The upper and lower limits of CX-1 were 0.32 and 0.0015 μg/mL, respectively, and the corresponding revised limits on CV-1 were 3.2 and 0.025 μg/mL. The screening results were reported by assigning an IC50 value to each dye for the CV-1 and CX-1 cell lines. These values will be referred to herein simply as CV and CX. The most desirable result would be to have a dye that was highly toxic to carcinoma cells but nontoxic to ‘normal’ cells. One measure of this type of selectivity is the ratio of the IC50's in the normal cell line to that in the carcinoma line, CV/CX.
Compounds are screened via an in vitro assay. CV-1 and CX-1 cells are seeded into separate assay plates. The plates are treated with varying concentrations of test compounds, rinsed, and colonies allowed to grow. IC50's are determined and drugs evaluated based on their selectivity and toxicity. Assay Steps: • I. Seeding Cells • II. Weighing • III. Preparation of Solution • IV. Treatment • V. Rinsing and Feeding • VI. Fixing • VII. IC50 Determination I. Seeding Cells
The cells should be seeded 16-30 hours before treatment. The media for CV-1 cells is DME+5% calf serum +5% Nuserum. The media for CX-1 cells is RPMI/DME (50/50)+5% calf serum +5% Nuserum.
(c) number of cells based on 2000 CX-1 cells/well and 1000 CV-1 cells/well. NOTE: Always make enough cell suspension for 1 extra plate to allow for volume loss during transfers.
• (a) For CV-1: 256 ug/ml-256 ul of 1 mg/ml stock +744 ul DMSO • (b) For CX-1: 25.6 ug/ml-100 ul of 256 ug/ml+900 ul DMSO IV. Treatment • 1. Each plate is treated with 4 test compounds, one positive control and one negative control. • 2. Serial dilutions of the compounds are made in the following way:
2 multi-well pipetters are used. One is set for 10 ul and one for 200 ul. Each is equipped with 6 tips spaced such that they fit into the 6 rows of a plate. 390 ul of media is added to the first column of each plate. 10 ul each of 4 compound solutions, a positive and a negative control are taken up and put into the first column of wells. The 200 ul pipetter is then placed in the same wells, pipetted up and down 3 times and two 200 ul aliquots are moved to the next column of wells. This column is pipetted up and down 3 times and 400 ul moved to column 3, etc. The final 400 ul excess from column 8 is discarded.
• 3. Label the plates along the front, each row −1 compound. • 4. Incubate the plates at 37° C. for 3 hrs. V. Rinsing • 1. Prepare several bottles of CX-1 and CV-1 media. • 2. Check for precipitate in first column of each plate and note. • 3. Starting with the plates treated first, rinse several plates at a time by aspirating the treatments and refilling each well with 0.5-1.0 ml of the rinse media. Aspirate and refill 2 more times for a total of 3 rinses. • 4.

[1] = Table XVII, benzotellurazole derivatives
[2] = Table XVII, selectivity ratio of IC50 values
[3] = Table XXI, oxathiacarbocyanine nitrogen substituents
[4] = Table XVI, selectivity ratio of IC50 values

CX (IC50 in the CX-1 cell line)	Compound	CV/CX (selectivity, kill ratio)	other results
0.04 µg/mL	CCN1/C(=C/C(=C/c2sc3ccc4ccccc4c3[n+]2CC)SC)Oc2ccc3ccccc3c21 [drawing 40|E|SMe]	5.0	–
–	CCN1/C(=C/C=C/c2sc3ccccc3[n+]2CC)Oc2ccc(NS(=O)(=O)c3ccccc3)cc21 [drawing 44|E|H|5-NHSO2Ph]	16.7	–
0.1 µg/mL	CCN1/C(=C/C=C/c2sc3ccccc3[n+]2CCC=O)Oc2ccccc21 [drawing 37|CCC═O|Et]	50.0	–
–	CCN1C(=CC=Cc2sc3ccc(OC)cc3[n+]2CC)Sc2ccccc21 [drawing 41|Et|5-MeO|H]	40.0	–
–	CCN1/C(=C/C=C/c2sc3c(OC)cccc3[n+]2CC)Sc2c(OC)cccc21 [drawing 41|Et|7-MeO|7-MeO]	5.0	–
–	CCN1/C(=C/C(=C/c2[te]c3ccc(C)cc3[n+]2CC)c2ccccc2)Sc2ccccc21 [R=E, X=S, Z1=5-Me, R2=Ph, Z2=H]	–	CX [1]: 0.3; CV/CX [2]: 30.0
–	CCC(=Cc1sc2ccccc2[n+]1C)C=C1Sc2ccccc2N1C [drawing 38|M|H|Et|H]	14.0	–
0.03 µg/mL	CCN1/C(=C/C=C/c2sc3ccccc3[n+]2CCC(=O)N(c2ccccc2)C(C)C)Oc2ccccc21 [drawing 37|CCC(═0)N(iPr)Ph|Et]	26.7	–
>0.32 µg/mL	O=C(C[n+]1c(/C=C/C=C2/Nc3ccccc3S2)sc2ccccc21)N1CCOCC1 [drawing 36|CC(═O)morpholino|H]	10.0	–
>1.0 µg/mL	CCN1/C(=C\C=C\c2sc3ccccc3[n+]2CC(=O)c2ccc(O)c(O)c2)Oc2ccccc21 [drawing 37|CC(═O)Ph-3,4-OH|Et]	10.0	–
–	CCN1/C(=C/C=C/c2sc3ccccc3[n+]2CC(N)=O)Oc2ccccc21 [drawing 37|CC(═O)N|Et]	>10.0	–
–	CCN1/C(=C/C=C/c2sc3ccccc3[n+]2CCC=NNS(=O)(=O)c2ccc(C)cc2)Oc2ccccc21 [R1=CCC═NNS02Ph-4C, R2=Et]	–	CX [3]: 0.3; CV/C (Table XXI): 33.3
>.32 µg/mL	CCN1C(=CC=Cc2oc3ccc(F)cc3[n+]2CC)Oc2ccc(F)cc21 [drawing 45|5-F|5-F]	10.0	–
–	CCN1/C(=C/C(C)=C/c2[te]c3ccc(C)cc3[n+]2CC)Sc2ccc(Cl)cc21 [R=E, X=S, Z1=5-Me, R2=Me, Z2=5-Cl]	–	CX [1]: 0.10; CV/CX [2]: 10.0
0.04 µg/mL	CCSC(=Cc1sc2ccccc2[n+]1CC)C=C1Sc2ccccc2N1CC [drawing 38|E|H|Set|H]	15.0	–
>0.32 µg/mL	CN1/C(=C/C=C(\C=O)c2sc3ccccc3[n+]2C)Sc2ccccc21 [drawing 38|M|CHO|H|H]	10.0	–
–	CCN(CC)CCN1/C(=C/C=C/c2oc3ccccc3[n+]2CC)Sc2ccccc21.I.[I-] [Dye D-116]	80	–
0.03 µg/mL	CCN1/C(=C/C=C/c2sc3c(N(C)C)cc(Cl)cc3[n+]2CC)Sc2ccccc21 [drawing 41|Et|5-Cl, 7-N(Me)2|H]	6.7	–
–	CCN(CC)C(=O)C[n+]1c(/C=C/C=C2\Oc3ccccc3N2CC)sc2ccccc21 [R1=CC(═0)N(Et)2, R2=Et]	–	CX [3]: 0.3; CV/C (Table XXI): >33.3

CX (IC50 in the CX-1 cell line)	Compound	CV/CX (selectivity, kill ratio)	other results
0.24 µg/mL	CCN1C(=CC(=Cc2sc3ccccc3[n+]2CC)SC)Sc2ccccc21 [drawing 38|E|H|SMe|H]	1.25	–
–	CCN1/C(=C/C=C/c2sc3ccccc3[n+]2CC)Sc2ccccc21.[I-] [Dye D-165]	100	CV/CX [4]: 100.0
0.3 µg/mL	CCN1/C(=C\C=C\c2sc3ccc4ccccc4c3[n+]2CC)Oc2ccc3ccccc3c21 [drawing 40|E|H]	6.7	–
–	CCN1/C(=C/C(C)=C/c2[te]c3ccc(C)cc3[n+]2CC)Sc2ccc(OC)cc21 [R=E, X=S, Z1=5-Me, R2=Me, Z2=5-MeO]	–	CX [1]: 0.03; CV/CX [2]: 33.3
0.07 µg/mL	CCN1/C(=C/C(=C/c2sc3ccccc3[n+]2CC)Sc2ccc(C)cc2)Sc2ccccc21 [drawing 38|E|H|SPhMe|H]	3.57	–
–	CCN1/C(=C/C=C/c2[te]c3cc(OC)c(OC)cc3[n+]2C)Sc2ccccc21 [R=M/E, X=S, Z1=5,6-MeO, R2=H, Z2=H]	–	CX [1]: 0.5; CV/CX [2]: 2.0
–	CN1C(=CC=Cc2[te]c3ccccc3[n+]2C)[Te]c2ccccc21 [R=M, X=Te, Z1=H, R2=H, Z2=H]	–	CX [1]: 0.30; CV/CX [2]: 16.7
0.03 µg/mL	CCN1C(=CC(=Cc2sc3ccccc3[n+]2CC)CSC(C)=O)Oc2ccccc21 [drawing 39|E|H|CSC(═O)C]	33.3	–
0.10 µg/mL	CCN1/C(=C/C=C/c2sc3ccc4ccccc4c3[n+]2CC)Sc2cc(N)ccc21 [drawing 47|NH2]	40	–
–	CC[n+]1c(/C=C/C=C2C=CN(C)c3ccccc32)sc2ccccc21 [Dye 4-quinoline]	–	CX (Table XVI, unsymmetrical dyes): 0.01; CV/CX [4]: 40.0
0.006 µg/mL	CCN1C2=C(CCc3ccccc32)S/C1=C\C=C\c1sc2c([n+]1CC)-c1ccccc1CC2 [drawing 43|E|4,5-H|4,5-H]	8.33	–
0.015 µg/mL	CSCCN1/C(=C\C=C\c2sc3ccccc3[n+]2CCSC)Sc2ccccc21 [drawing 36|CCSMe|CCSMe]	12	–
>1.0 µg/mL	CCN1/C(=C/C=C/c2sc3ccccc3[n+]2CC(=O)N2CCOCC2)Oc2ccccc21 [drawing 37|CC(═O)morpholino|Et]	10.0	–
>0.32 µg/mL	CCN1/C(=C/C(=C/c2sc3ccccc3[n+]2CC)C(=S)[S-])Sc2ccccc21 [drawing 38|E|H|C(═S)S—|H]	<8.7	–
0.3 µg/mL	CCN1/C(=C/C=C/c2sc3ccccc3[n+]2CCNS(=O)(=O)c2ccc(C)cc2)Oc2ccccc21 [drawing 37|CCNSO2Ph-4C|Et]	26.7	–
–	CCN1/C(=C/C=C/c2sc3ccccc3[n+]2CC(=O)c2ccc(O)cc2O)Oc2ccccc21 [R1=CC(═0)Ph-2,4-OH, R2=Et]	–	CX [3]: 0.3; CV/C (Table XXI): >33.3
0.05 µg/mL	CCN1C(=CC(C)=Cc2sc3ccccc3[n+]2CC)Oc2ccccc21 [drawing 39|E|H|Me]	20.0	–
–	OCCN1/C(=C/C=C/c2sc3ccccc3[n+]2CCO)Sc2ccccc21 [R1=CCOH, R2=CCOH]	–	CX (Table XX, thiacarbocyanine nitrogen substituents): >0.32; CV/CX (Table XX, ratio given a value of 1 where dye inactive): 1.0
–	CCN1C(=CC=c2sc(=Cc3sc4c([n+]3CC)CCCC4)n(CC)c2=O)Oc2ccccc21.[I-] (mixture of isomers) [Dye D-170]	100.0	–

Compound	CX (IC50 in the CX-1 cell line)	CV/CX (selectivity, kill ratio)	other results
CCN1C(=CC=Cc2oc3ccc(OC)cc3[n+]2CC)Oc2ccc(OC)cc21 [drawing 45|5-MeO|5-MeO]	0.31 µg/mL	5.16	–

— patent publication US20060099712A1, “Correlation of anti-cancer activity of dyes with redox potentials” (Eastman Kodak Company, priority 2004, published 2006)
